Values quoted from earlier work, collected in patent US6436949B1, “Heterocyclically substituted benzamides and their use” (Abbott Laboratories, priority 1996, dated 2002).

Columns and labels:
[1] = test system: calpain; details: J.Med.Chem. 1990,33, 11-13
[2] = test system: calpain; details: activated platelets; J. Biol. Chem., 1993, Vol 268, 12603-12608

| Compound | inhibition of calpain [1] | cleavage of pp60src [2] |
| --- | --- | --- |
| Ph—CONH—CH(CH2Ph)—CO—COCOOCH3 | weak inhibitor of calpain |  |
| CCCC[C@@H](C=O)NC(=O)[C@H](CC(C)C)NC(=O)OCc1ccccc1 [calpeptin] |  | can be prevented |
